Key:
[1] = test system: HRT-18 cell line; test: Antiproliferative activity against human HRT-18 cell line assessed as cell growth inhibition measured after 72 hrs by MTT assay; format: functional, cell-based; details: HRT-18, 72 h
[2] = test system: HBL-100; test: Cytotoxicity against human HBL-100 cells assessed as cell growth inhibition; format: toxicity, cell-based
[3] = Antiproliferative activity against human HC-04 cells assessed as cell growth inhibition measured after 72 hrs by MTT assay; format: functional, cell-based; details: HC04, 72 h
[4] = biological target: Histone deacetylase; format: cell-based, Homo sapiens; details: hela
[5] = biological target: Histone deacetylase 2 (Homo sapiens, UniProt Q92769)
[6] = biological target: Histone deacetylase 1 (Homo sapiens, UniProt Q13547); test: Inhibition of human recombinant HDAC1
[7] = biological target: T1, Polyamine deacetylase HDAC10 (Homo sapiens, UniProt Q969S8); test: Inhibition of human recombinant HDAC10
T1 sequence (Q969S8 whole entry): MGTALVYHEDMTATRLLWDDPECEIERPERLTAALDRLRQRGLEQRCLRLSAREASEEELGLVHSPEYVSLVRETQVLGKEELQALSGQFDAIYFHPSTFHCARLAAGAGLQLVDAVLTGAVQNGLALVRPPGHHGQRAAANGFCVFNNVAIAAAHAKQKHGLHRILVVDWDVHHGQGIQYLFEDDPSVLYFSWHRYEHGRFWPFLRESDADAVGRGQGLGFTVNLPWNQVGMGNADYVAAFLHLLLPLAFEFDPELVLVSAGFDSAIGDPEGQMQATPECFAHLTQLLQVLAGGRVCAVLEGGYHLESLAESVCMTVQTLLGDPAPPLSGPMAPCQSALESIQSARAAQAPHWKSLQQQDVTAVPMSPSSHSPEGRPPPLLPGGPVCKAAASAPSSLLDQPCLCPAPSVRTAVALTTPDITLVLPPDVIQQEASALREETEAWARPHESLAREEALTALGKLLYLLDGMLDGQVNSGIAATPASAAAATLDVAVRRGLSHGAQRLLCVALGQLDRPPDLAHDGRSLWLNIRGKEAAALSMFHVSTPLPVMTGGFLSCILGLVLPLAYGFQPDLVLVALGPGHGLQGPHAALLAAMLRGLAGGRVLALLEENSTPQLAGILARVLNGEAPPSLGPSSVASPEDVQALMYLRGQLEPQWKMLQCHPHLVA

[8] = biological target: T2, Protein deacetylase HDAC6 (Homo sapiens, UniProt Q9UBN7); test: Inhibition of human recombinant HDAC6
T2 sequence (Q9UBN7 whole entry): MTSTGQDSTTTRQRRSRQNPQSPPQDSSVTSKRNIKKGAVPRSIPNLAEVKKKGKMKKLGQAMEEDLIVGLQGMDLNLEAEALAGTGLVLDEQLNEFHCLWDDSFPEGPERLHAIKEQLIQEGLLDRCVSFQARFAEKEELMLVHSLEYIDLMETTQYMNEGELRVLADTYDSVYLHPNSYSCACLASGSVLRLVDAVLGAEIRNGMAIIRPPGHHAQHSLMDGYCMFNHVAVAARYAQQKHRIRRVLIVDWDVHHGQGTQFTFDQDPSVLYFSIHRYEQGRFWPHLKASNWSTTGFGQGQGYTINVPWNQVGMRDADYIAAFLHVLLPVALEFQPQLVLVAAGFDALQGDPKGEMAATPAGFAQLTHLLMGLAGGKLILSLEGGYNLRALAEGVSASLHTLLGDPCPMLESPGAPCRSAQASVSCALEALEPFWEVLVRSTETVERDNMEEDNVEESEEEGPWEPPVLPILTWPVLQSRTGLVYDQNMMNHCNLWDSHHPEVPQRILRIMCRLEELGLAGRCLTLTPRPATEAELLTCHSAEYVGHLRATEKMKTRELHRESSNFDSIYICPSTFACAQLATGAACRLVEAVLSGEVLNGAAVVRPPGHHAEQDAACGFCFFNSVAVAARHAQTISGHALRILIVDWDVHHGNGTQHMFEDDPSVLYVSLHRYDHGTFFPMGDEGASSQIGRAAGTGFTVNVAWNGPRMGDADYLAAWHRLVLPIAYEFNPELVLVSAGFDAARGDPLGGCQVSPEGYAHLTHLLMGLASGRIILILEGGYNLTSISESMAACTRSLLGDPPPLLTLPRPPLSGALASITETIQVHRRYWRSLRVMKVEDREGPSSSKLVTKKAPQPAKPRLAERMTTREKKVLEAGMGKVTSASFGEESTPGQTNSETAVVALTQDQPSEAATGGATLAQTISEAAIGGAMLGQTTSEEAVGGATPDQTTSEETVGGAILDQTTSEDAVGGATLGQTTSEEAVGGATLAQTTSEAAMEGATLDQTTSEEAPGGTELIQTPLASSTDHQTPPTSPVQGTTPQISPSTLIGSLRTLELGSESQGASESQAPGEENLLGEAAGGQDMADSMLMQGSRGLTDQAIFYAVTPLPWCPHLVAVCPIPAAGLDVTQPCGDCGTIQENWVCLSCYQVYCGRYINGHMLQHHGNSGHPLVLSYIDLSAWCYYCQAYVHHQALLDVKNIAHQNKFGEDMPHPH

[9] = test system: Toxoplasma gondii; test: Antiparasitic activity against Toxoplasma gondii assessed as parasitic growth inhibition; format: functional, organism-based
[10] = biological target: Histone deacetylase 3 (Homo sapiens, UniProt O15379); test: Inhibition of human recombinant HDAC3
[11] = Dissociation constant, pKa of the compound; format: physicochemical

Sequence of Histone deacetylase 1 (Q13547 whole entry): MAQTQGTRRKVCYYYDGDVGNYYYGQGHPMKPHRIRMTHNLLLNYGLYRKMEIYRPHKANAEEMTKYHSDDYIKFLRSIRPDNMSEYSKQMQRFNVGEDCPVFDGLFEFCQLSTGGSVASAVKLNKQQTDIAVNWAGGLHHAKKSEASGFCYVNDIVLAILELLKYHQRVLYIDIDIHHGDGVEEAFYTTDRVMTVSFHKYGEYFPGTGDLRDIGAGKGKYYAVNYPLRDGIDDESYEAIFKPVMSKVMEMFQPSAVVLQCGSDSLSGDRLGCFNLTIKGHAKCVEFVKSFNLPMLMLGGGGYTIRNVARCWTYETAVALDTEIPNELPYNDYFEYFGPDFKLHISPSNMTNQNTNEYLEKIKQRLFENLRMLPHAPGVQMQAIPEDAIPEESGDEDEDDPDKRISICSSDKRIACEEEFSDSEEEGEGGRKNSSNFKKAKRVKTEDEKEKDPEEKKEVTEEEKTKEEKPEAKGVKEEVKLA
Sequence of Histone deacetylase 2 (Q92769 whole entry): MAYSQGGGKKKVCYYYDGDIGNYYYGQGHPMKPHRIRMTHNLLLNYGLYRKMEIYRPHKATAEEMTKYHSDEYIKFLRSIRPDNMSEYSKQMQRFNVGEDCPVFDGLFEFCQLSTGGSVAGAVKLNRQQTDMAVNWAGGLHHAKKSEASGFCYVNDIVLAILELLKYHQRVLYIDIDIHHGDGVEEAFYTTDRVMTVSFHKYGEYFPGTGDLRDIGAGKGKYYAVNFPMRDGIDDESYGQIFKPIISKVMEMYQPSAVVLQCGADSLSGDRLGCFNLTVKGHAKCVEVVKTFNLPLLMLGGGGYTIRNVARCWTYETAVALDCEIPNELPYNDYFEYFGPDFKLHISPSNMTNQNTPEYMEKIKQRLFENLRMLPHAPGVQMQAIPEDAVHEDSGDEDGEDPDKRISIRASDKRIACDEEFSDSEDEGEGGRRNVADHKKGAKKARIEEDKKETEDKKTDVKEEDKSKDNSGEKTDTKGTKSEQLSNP
Sequence of Histone deacetylase 3 (O15379 whole entry): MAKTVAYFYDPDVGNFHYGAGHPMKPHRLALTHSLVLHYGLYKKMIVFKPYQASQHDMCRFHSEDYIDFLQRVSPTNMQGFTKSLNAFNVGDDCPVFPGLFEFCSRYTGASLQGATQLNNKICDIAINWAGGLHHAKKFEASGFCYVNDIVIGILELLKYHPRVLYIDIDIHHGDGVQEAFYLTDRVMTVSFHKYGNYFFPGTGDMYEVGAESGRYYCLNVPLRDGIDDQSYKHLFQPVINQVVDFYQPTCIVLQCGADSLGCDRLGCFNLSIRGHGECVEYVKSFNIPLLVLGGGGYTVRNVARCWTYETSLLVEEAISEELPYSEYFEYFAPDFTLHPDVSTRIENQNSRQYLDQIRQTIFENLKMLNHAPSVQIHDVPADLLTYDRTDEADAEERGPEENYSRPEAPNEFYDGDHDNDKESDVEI

## NC(=S)NC(=O)CCCCCC(=O)Nc1ccccc1
[1]
  IC50: 24.1 µM
[2]
  inhibition (INH): < 12%
[3]
  IC50: 24.1 µM

## C[S+]([O-])CCCCCCC(=O)Nc1ccccc1 (configuration not stated)
[4]
  IC50: 48 µM

## O=C(CCCCCCOP(=O)([O-])[O-])Nc1ccccc1.[K+].[K+]
[4]
  IC50: 3900 µM

## NC(=S)NC(=O)CCCCC(=O)Nc1ccccc1
[1]
  IC50: 30.4 µM
[2]
  inhibition (INH): < 12%
[3]
  IC50: 30.4 µM

## O=C(CCCCNP(=O)([O-])[O-])Nc1ccccc1.[K+].[K+]
[4]
  IC50: 360 µM

## CCN(CC)C(=S)SSCCCCCC(=O)Nc1ccccc1
[5]
  IC50: 0.18 µM
[4]
  IC50: 0.7 µM
[6]
  IC50: 0.046 µM
[7]
  IC50: 0.14 µM
[8]
  IC50: 0.068 µM

## C=C1N[C@@](C)(CC)C(=O)N[C@@H](Cc2ccccc2)C(=O)N2C[C@@H](C)C[C@@H]2C(=O)N[C@H]1CCCCCC(=O)[C@@H](C)O
[9]
  IC50: 0.0286 µM

## O=C(c1ccc(C(=O)C(F)(F)C(F)(F)F)s1)N1CCc2ccccc21
[10]
  IC50: 2.9 µM
[6]
  IC50: 4.2 µM

## CCC(=O)CCCCCCC(=O)Nc1ccccc1
[4]
  IC50: > 100 µM
[8]
  IC50: > 300 µM

## O=C(CCCCCOP(=O)([O-])[O-])Nc1ccccc1.[K+].[K+]
[4]
  IC50: 60 µM

## O=C(CCCCOP(=O)([O-])[O-])Nc1ccccc1.[K+].[K+]
[4]
  IC50: 2200 µM

## O=C(CCCCCNP(=O)([O-])[O-])Nc1ccccc1.[K+].[K+]
[4]
  IC50: 70 µM

## O=C(CCCCCOP([O-])([O-])=S)Nc1ccccc1.[K+].[K+]
[4]
  IC50: 50 µM

## O=C(CCCCCCNP(=O)([O-])[O-])Nc1ccccc1.[K+].[K+]
[4]
  IC50: 490 µM

## CC(=O)O[C@H](C)C(=O)CCCCCCC(=O)Nc1ccccc1
[4]
  IC50: 63.8 µM
[8]
  IC50: > 300 µM

## O=C(CCCCCCC(=O)Nc1ccccc1)NO [VORINOSTAT]
[11]
  pKa: 9.4

— ChEMBL document CHEMBL5352506, “The Zinc-Binding Group Effect: Lessons from Non-Hydroxamic Acid Vorinostat Analogs” (J Med Chem, 2023)
